The values that follow come from patent publication US4358440A, “Polypeptide and its production and use” (Takeda Chemical Industries, Ltd., priority 1980, dated 1982).

Like-named read-outs stand apart in the source and are kept apart here. Residues, ends and D or L forms follow the SMILES beside them.

The conditions of series [1]: mice, intracerebral route; cited from earlier work.
The conditions of series [2]: rats, intracerebral route; cited from earlier work.
The subject of another series is opiate receptor (brain). Description: binding strength with the opiate receptor (brain). The settings on record: for binding strength with the opiate receptor (brain) relative to human beta-endorphin: times greater than human beta-endorphin; for binding activity relative to morphine: times greater than morphine. The procedure:
The above experiment was carried out by the procedure as described in The Journal of Biological Chemistry, Vol. 254, No. 8, p. 2610 (1979).

Series [3] can be described thus: analgesic action of the novel peptide. The settings on record: result in words; no test described.
The conditions of series [4]: result in words.

As for “beta-endorphin: brain peptide in mammals, a particularly important physiological peptide among the endorphins (YGGFMTSEKSQTPLVTLFKNAIIKNAYKKGE; Beta-endorphin; UniProt P01189 237-267, looked up)”, the analgesic effect result in series [1] and in series [2] was “exerts an analgesic effect” throughout.

As to `CC[C@H](C)[C@H](NC(=O)[C@H](Cc1c[nH]cn1)NC(=O)[C@H](CCCCN)NC(=O)[C@H](CC(C)C)NC(=O)[C@H](CC(C)C)NC(=O)[C@@H](NC(=O)[C@@H](NC(=O)[C@H](CC(C)C)NC(=O)[C@@H]1CCCN1C(=O)[C@H](CCCCN)NC(=O)[C@H](Cc1c[nH]cn1)NC(=O)[C@H](CO)NC(=O)[C@H](CCC(N)=O)NC(=O)[C@H](CCCCN)NC(=O)[C@@H](NC(=O)[C@H](Cc1ccc(O)cc1)NC(=O)[C@@H]1CCCN1C(=O)[C@H](CCCCN)NC(=O)[C@H](CCSC)NC(=O)[C@H](Cc1ccccc1)NC(=O)CNC(=O)CNC(=O)[C@H](Cc1ccc(O)cc1)NC(C)=O)[C@@H](C)O)[C@@H](C)CC)[C@@H](C)O)C(=O)N[C@H](C(=O)N[C@@H](CC(C)C)C(=O)N[C@@H](CCCCN)C(=O)N[C@@H](CC(N)=O)C(=O)N[C@@H](CCC(=O)O)C(=O)N[C@@H](CCC(N)=O)C(=O)O)[C@@H](C)O` [salmon endorphin, reference compound] (Ac-YGGFMKPYTKQSHKPLITLLKHITLKNEQ-OH), the “binding to the opiate receptor” value in the series with opiate receptor (brain) (result in words) is “in no way binds to the opiate receptor”.

On to `CC[C@H](C)[C@H](NC(=O)[C@H](Cc1c[nH]cn1)NC(=O)[C@H](CCCCN)NC(=O)[C@H](CC(C)C)NC(=O)[C@H](CC(C)C)NC(=O)[C@@H](NC(=O)[C@@H](NC(=O)[C@H](CC(C)C)NC(=O)[C@@H]1CCCN1C(=O)[C@H](CCCCN)NC(=O)[C@H](Cc1c[nH]cn1)NC(=O)[C@H](CO)NC(=O)[C@H](CCC(N)=O)NC(=O)[C@H](CCCCN)NC(=O)[C@@H](NC(=O)[C@H](Cc1ccc(O)cc1)NC(=O)[C@@H]1CCCN1C(=O)[C@H](CCCCN)NC(=O)[C@H](CCSC)NC(=O)[C@H](Cc1ccccc1)NC(=O)CNC(=O)CNC(=O)[C@@H](N)Cc1ccc(O)cc1)[C@@H](C)O)[C@@H](C)CC)[C@@H](C)O)C(=O)N[C@H](C(=O)N[C@@H](CC(C)C)C(=O)N[C@@H](CCCCN)C(=O)N[C@@H](CC(N)=O)C(=O)N[C@@H](CCC(=O)O)C(=O)N[C@@H](CCC(N)=O)C(=O)O)[C@@H](C)O` [Compound (I), H-Tyr-Gly-Gly-Phe-Met-Lys-Pro-Tyr-Thr-Lys-Gln-Ser-His-Lys-Pro-Leu-Ile-Thr- Leu-Leu-Lys-His-Ile-Thr-Leu-Lys-Asn-Glu-Gln-OH] (H-YGGFMKPYTKQSHKPLITLLKHITLKNEQ-OH), for which the results for the “binding strength with the opiate receptor (brain) relative to human beta-endorphin” value in the series on opiate receptor (brain) (with the addition of sodium) and with opiate receptor (brain) (without the addition of sodium) were “about 3.05 times” and “about 2.71 times”, respectively. For the same compound, the “binding activity relative to morphine” value is “about 3.74 times” in the series on opiate receptor (brain) (with the addition of sodium) and “about 4.6 times” in the series with opiate receptor (brain) (without the addition of sodium). Besides, the analgesic action entry in series [3] is “excellent analgesic action”. In addition, in series [4], the toxicity entry is recorded as “very low toxicity”.
